# Measured values reported in PMC10031466, “The ROK kinase N-acetylglucosamine kinase uses a sequential random enzyme mechanism with successive conformational changes upon each substrate binding” (The Journal of Biological Chemistry, 2023).
# Assays:
# [1] = molecular target: T1, N-acetylglucosamine kinase (PsNagK) (Plesiomonas shigelloides, UniProt R8APY9); experiment: crystal structures (binary 7PA1; ternary with GlcNAc 7P9P); isothermal differential scanning fluorimetry; assay type: binding
# T1 construct: gene nagK; His-SUMO tagged P. shigelloides NagK (crystallization)
# T1 sequence (R8APY9 1-303): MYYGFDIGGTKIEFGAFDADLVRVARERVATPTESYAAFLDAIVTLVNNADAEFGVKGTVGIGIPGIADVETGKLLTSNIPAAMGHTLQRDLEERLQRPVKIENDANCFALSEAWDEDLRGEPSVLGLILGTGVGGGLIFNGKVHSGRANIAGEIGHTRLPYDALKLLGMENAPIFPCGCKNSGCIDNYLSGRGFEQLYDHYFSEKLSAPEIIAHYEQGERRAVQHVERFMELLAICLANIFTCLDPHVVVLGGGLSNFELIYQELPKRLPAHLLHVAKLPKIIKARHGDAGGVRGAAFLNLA
# [2] = molecular target: T1, N-acetylglucosamine kinase (PsNagK); experiment: crystal structure; isothermal differential scanning fluorimetry; assay type: binding
Structure (SMILES),Kd [1] [µM],Kd [2] [µM]
Nc1ncnc2c1ncn2[C@@H]1O[C@H](COP(=O)(O)OP(=O)(O)NP(=O)(O)O)[C@@H](O)[C@H]1O [AMP-PNP],2200 ± 600,
"CC(=O)N[C@@H]1[C@@H](O)[C@H](O)[C@@H](CO)O[C@@H]1O [GlcNAc, N-acetyl-D-glucosamine]",,230 ± 20
